The target of one assay is maltase. The experiment in a line: In vitro maltase inhibition (rat intestinal mucosa α-glucosidase, glucose assay kit). The settings on record: for IC50 on maltase: Figure 4C, same IC50 in mass units, in brackets; for IC50: read-out: IC50 against maltase, Figure 4.
The next assay deals with sucrase (Rattus norvegicus, UniProt P23739). The experiment in a line: In vitro sucrase inhibition (rat intestinal mucosa α-glucosidase, glucose assay kit).
Assay [1] concerns diabetic mice. The assay can be described thus: Starch tolerance test, PBG detection in alloxan-induced diabetic mice. It counts as in vivo. The settings on record: starch 3 g/kg oral, acarbose 6 mg/kg, compared to model group. On the procedure: (§1) PBG detection in diabetic mice adhered to the protocol previously established by our group. After 12-h fasting, hyperglycemia was induced by tail vein injection of alloxan at a dose of 60 mg/kg. Fasting blood glucose was measured 72 h post-induction. Mice with blood glucose levels of 180–360 mg/dL were considered diabetic and randomized into five groups (n = 8/group): Model (sucrose 3 g/kg); […] SP-10 L (sucrose 3 g/kg + SP-10 5 mg/kg); SP-10 M (sucrose 3 g/kg + SP-10 10 mg/kg) and SP-10 H (sucrose 3 g/kg + SP-10 20 mg/kg). Blood glucose was measured pre-gavage and at 30, 60, and 120 min post-gavage. Data was recorded and analyzed for PBG and AUC using Graphpad Prism 9.5.1. Maltose and starch experiments used identical designs.

Assay [2] concerns diabetic mice. The assay can be described thus: Maltose tolerance test, PBG detection in alloxan-induced diabetic mice. As to conditions: maltose 3 g/kg oral, compared to model group. It counts as in vivo. On the procedure:
as §1

For assay [3], the system named is diabetic mice. The assay can be described thus: Sucrose tolerance test, PBG detection in alloxan-induced diabetic mice. It counts as in vivo. As to conditions: sucrose 3 g/kg oral, acarbose 6 mg/kg. Here is the method: as §1
The mark [4] stands for this setting: maltose 1 mmol/L, 37 °C, 20 min.
Where [5] appears, read: IC50 against sucrase, Figure 4, sucrose 50 mmol/L, 37 °C, 20 min.
Setting [6] is: IC50 on sucrase, Figure 4D, same IC50 in mass units, in brackets.
Where [7] appears, read: SP-10 10 and 20 mg/kg, compared to model group.

Molecules are shown by their SMILES. Values after ≈ are worked out from the molar mass of the structure shown.

sucrase, sequence (P23739 whole entry): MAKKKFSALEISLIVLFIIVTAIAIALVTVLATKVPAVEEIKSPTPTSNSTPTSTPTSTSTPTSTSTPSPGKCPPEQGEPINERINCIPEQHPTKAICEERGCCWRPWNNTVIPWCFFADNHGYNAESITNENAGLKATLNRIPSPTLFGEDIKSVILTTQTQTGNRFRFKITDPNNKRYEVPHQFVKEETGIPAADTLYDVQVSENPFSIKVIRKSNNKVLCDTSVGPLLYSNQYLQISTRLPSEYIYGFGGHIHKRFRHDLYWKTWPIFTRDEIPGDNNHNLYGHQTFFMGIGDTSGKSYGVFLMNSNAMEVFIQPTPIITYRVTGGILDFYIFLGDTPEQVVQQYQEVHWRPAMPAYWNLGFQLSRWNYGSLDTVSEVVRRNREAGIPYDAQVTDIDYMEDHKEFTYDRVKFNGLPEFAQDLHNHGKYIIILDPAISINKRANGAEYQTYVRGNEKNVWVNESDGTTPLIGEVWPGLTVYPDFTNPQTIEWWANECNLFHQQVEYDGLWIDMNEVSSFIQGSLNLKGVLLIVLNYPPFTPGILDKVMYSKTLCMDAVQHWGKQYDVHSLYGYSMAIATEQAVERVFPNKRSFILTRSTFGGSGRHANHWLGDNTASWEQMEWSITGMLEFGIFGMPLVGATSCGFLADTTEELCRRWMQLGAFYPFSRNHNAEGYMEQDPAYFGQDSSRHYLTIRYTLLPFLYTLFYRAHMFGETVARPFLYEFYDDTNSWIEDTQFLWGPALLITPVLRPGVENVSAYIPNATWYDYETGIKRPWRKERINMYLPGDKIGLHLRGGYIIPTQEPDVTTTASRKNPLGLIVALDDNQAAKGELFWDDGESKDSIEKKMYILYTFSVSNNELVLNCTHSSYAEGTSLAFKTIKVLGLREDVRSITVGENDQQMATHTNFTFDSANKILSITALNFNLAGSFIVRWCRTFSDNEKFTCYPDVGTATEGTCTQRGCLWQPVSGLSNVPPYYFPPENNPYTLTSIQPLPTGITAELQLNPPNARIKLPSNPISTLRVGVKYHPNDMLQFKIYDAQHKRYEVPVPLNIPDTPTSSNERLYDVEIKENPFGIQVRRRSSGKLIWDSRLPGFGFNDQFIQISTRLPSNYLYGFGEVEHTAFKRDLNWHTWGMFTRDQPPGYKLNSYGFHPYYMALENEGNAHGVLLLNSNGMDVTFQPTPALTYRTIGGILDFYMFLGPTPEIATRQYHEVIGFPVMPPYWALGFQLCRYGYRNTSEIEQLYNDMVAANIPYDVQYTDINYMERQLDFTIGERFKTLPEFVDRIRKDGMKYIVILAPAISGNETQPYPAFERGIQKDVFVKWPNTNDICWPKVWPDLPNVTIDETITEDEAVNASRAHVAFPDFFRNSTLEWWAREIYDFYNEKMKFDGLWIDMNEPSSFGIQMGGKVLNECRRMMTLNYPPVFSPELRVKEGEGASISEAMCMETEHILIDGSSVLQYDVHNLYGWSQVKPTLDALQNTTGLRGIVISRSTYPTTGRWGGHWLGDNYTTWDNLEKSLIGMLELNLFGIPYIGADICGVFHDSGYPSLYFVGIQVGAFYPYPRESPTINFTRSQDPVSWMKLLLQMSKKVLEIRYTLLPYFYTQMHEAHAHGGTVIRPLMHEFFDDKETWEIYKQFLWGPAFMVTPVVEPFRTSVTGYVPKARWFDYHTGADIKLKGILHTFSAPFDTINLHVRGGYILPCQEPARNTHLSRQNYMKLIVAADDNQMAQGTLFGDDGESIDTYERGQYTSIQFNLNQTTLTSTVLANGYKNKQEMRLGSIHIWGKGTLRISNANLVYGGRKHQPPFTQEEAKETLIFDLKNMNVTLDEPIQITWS
Description for maltase: (§2) The α-Glucosidase preparation and inhibitory activity evaluation followed established laboratory protocols [41]. After overnight fasting, rats were humanely euthanized according to approved ethical guidelines. Small intestinal segments were immediately excised and placed on ice to preserve enzymatic activity. Following longitudinal dissection, the luminal surface was rinsed three times with pre-chilled PBS (0.1 M, pH 7.4), and mucosa was scraped using sterile slides. The mucosal tissue was subsequently dissolved in cold PBS (1:5 m/v), centrifuged (8000 rpm, 4 °C, 4 min), and the supernatant was snap-frozen in liquid nitrogen for storage at −80 °C.
(§3) After shaking, 50 μL of maltase (11.32 U/mL) or sucrase (15.26 U/mL) was added and incubated at 37 °C for 20 min with oscillation. Reactions were terminated by heating at 95 °C for 15 min. Glucose production was quantified using a glucose assay kit, and IC50 values were calculated with GraphPad Prism 9.5.1.
Description for sucrase: as §2, §3

A word on the IC50: it is the midpoint of a concentration-inhibition curve. In the case of `O=C(C=Cc1ccc(O)c(O)c1)OC1CC(O)(C(=O)O)CC(O)C1O` (centres unmarked) [NCGA, neochlorogenic acid], the IC50 on maltase at maltase stood at 31.07 µg/mL (≈ 87.7 µM). For the same molecule, the IC50 at maltase (setting [4]) is 87.7 µM; against sucrase (setting [5]), 130 µM; on sucrase (setting [6]), 129 µM. Besides, the “IC50 against sucrase, fold higher relative to acarbose” value against sucrase amounted to 215 fold.
Taken in the same sequence, the figures for `O=C(/C=C/c1ccc(O)c(O)c1)O[C@@H]1C[C@](O)(C(=O)O)C[C@@H](O)[C@H]1O` [CGA, chlorogenic acid] were 40.60 µg/mL (≈ 115 µM), 115 µM, 126 µM, 126 µM and 210 fold.
As to `C[C@H]1O[C@H](O[C@H]2[C@H](O)[C@@H](O)[C@@H](O[C@H]3[C@H](O)[C@@H](O)C(O)O[C@@H]3CO)O[C@@H]2CO)[C@H](O)[C@@H](O)[C@@H]1N[C@H]1C=C(CO)[C@@H](O)[C@H](O)[C@H]1O` (some centres unmarked) [acarbose, Acarbose], the “PBG levels at all measured time points” value in the assay with diabetic mice [1] (SP-10 H 20 mg/kg) is listed as “significantly reduced”. The “AUC levels (0–120 min)” value in the assay with diabetic mice [1] (SP-10 M 10 mg/kg and SP-10 H 20 mg/kg) was “markedly decreased”. Further, the “PBG levels at 30 and 60 min” value in the assay with diabetic mice [2] (all three SP-10 groups (5, 10, 20 mg/kg), acarbose 6 mg/kg) is “lower PBG levels at 30 and 60 min, although these differences were not statistically significant”. For the same molecule, the “PBG levels at 120 min” value with diabetic mice [2] (all treatment groups (SP-10 5, 10, 20 mg/kg, acarbose 6 mg/kg)) is on record as “statistically significant reductions”. In the assay on diabetic mice [3] (setting [7]), the “Blood glucose AUC (0–120 min)” value is “significantly lower” and the “PBG levels at 30 min” value was “significant attenuation”. Further, the “Glycemic levels by 120 min” value in the assay on diabetic mice [3] (SP-10 H 20 mg/kg) is “restored glycemic levels to preprandial values”. The “IC50 for maltase inhibition” value on maltase (Figure 1, maltose 1 mmol/L, 37 °C, 20 min) worked out at 0.168 µg/mL. In addition, the IC50 on maltase (setting [4]) was determined as 0.26 µM.
Consider `O=C(C=Cc1ccc(O)c(O)c1)OC1C(O)CC(O)(C(=O)O)CC1O` (centres unmarked) [CCGA, cryptochlorogenic acid], for which the IC50 on maltase against maltase came to 38.47 µg/mL (≈ 109 µM). The results for the IC50 on maltase (setting [4]), at sucrase (setting [5]) and against sucrase (setting [6]) were 109 µM, 110 µM and 110 µM, respectively.

These data come from article PMC12388904, “Hypoglycemic Effects of Silphium perfoliatum L. In Vitro and In Vivo and Its Active Composition Identification by UPLC-Triple-TOF-MS/MS” (Pharmaceuticals, 2025).
